Assay results taken from patent US8138168B1 (Takeda Pharmaceutical Company Limited, priority 2007, dated 2012).

Target: T1, Recombinant human renin (Homo sapiens, UniProt P00797)
T1 construct: isolate the active form (residues 67-406); made in house; host or cells: FreeStyle 293-F cells (transient expression of pcDNA3.1(+)/hREN)
T1 sequence (P00797 67-406): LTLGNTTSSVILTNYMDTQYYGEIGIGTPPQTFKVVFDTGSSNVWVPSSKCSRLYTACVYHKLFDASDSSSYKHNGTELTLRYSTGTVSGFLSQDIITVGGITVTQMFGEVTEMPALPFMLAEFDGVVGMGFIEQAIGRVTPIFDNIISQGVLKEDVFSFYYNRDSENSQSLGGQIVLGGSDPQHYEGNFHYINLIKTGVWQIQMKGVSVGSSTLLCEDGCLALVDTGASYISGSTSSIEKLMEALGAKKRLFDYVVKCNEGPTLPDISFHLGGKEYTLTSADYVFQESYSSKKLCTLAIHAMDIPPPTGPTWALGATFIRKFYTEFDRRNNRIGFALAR
Assay: In vitro enzymatic activity assay of renin inhibitors (fluorogenic peptide substrate)
Type: biochemical
Details: read-out: IC50 of Exemplified Compounds Against Renin
Outline: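 Enzyme: recombinant human renin, 3 nM final, 10 min compound pre-incubation at 37 °C; buffer 50 mM Hepes pH 7.4 with 0.1 mg/mL BSA or extra 2% BSA; 5% DMSO.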

Row | SMILES | IC50 [µM]
1 | COCCCn1c([C@@H]2CCCN(C(=O)[C@@H]3CN(C(=O)C4CCCC4)C[C@H]3N)C2)nc2ccccc21 [Compound 395, ((3R,4S)-4-amino-1-(cyclopentanecarbonyl)pyrrolidin-3-yl)((R)-3-(1-(3-methoxypropyl)-1H-benzo[d]imidazol-2-yl)piperidin-1-yl)methanone] | > 1
2 | CC[C@H](C)[C@H](N)C(=O)N1CCCC(c2nc3ccccc3[nH]2)C1 (stereo partly drawn) [Compound 48, (2S,3S)-1-(3-(1H-benzo[d]imidazol-2-yl)piperidin-1-yl)-2-amino-3-methylpentan-1-one] | > 1
3 | COCCCn1c([C@@H]2CCCN(C(=O)C[C@@H](N)COc3ccccc3C(=O)OC)C2)nc2ccccc21 [Compound 432, methyl 2-((R)-2-amino-4-((R)-3-(1-(3-methoxypropyl)-1H-benzo[d]imidazol-2-yl)piperidin-1-yl)-4-oxobutoxy)benzoate] | > 1
4 | COCCCn1c([C@@H]2CCCN(C(=O)[C@@H]3CN(C(=O)Nc4ccccc4OC)C[C@H]3N)C2)nc2ccccc21 [Compound 400, (3S,4R)-3-amino-N-(2-methoxyphenyl)-4-((R)-3-(1-(3-methoxypropyl)-1H-benzo[d]imidazol-2-yl)piperidine-1-carbonyl)pyrrolidine-1-carboxamide] | > 1
5 | CC(C)[C@H](N)C(=O)N1CCCC(c2nc3ccccc3[nH]2)C1 (stereo partly drawn) [Compound 47, (2S)-1-(3-(1H-benzo[d]imidazol-2-yl)piperidin-1-yl)-2-amino-3-methylbutan-1-one] | > 1
6 | N[C@@H](CCl)C(=O)N1CCCC(c2nc3ccccc3[nH]2)C1 (stereo partly drawn) [Compound 60, (2R)-1-(3-(1H-benzo[d]imidazol-2-yl)piperidin-1-yl)-2-amino-3-chloropropan-1-one] | > 1
7 | O=C(NC(=O)N1CCCC(c2nc3ccccc3[nH]2)C1)c1ccccc1 (stereo not drawn) [Compound 5, 3-(1H-benzo[d]imidazol-2-yl)-N-benzoylpiperidine-1-carboxamide] | > 1
8 | O=C(Nc1ccccc1)N1CCCC(c2nc3ccccc3[nH]2)C1 (stereo not drawn) [Compound 8, 3-(1H-benzo[d]imidazol-2-yl)-N-phenylpiperidine-1-carboxamide] | > 1
9 | COCCCn1c([C@@H]2CCCN(C(=O)[C@@H]3CN(S(=O)(=O)c4cc(OC)ccc4OC)C[C@H]3N)C2)nc2ccccc21 [Compound 413, ((3R,4S)-4-amino-1-(2,5-dimethoxyphenylsulfonyl)pyrrolidin-3-yl)((R)-3-(1-(3-methoxypropyl)-1H-benzo[d]imidazol-2-yl)piperidin-1-yl)methanone] | > 1
10 | NC(=O)CCn1c([C@@H]2CCCN(C(=O)C[C@H](N)Cc3ccc(-c4ccc(Cl)cc4)cc3)C2)nc2ccccc21 [Compound 489, 3-(2-((R)-1-((R)-3-amino-4-(4′-chlorobiphenyl-4-yl)butanoyl)piperidin-3-yl)-1H-benzo[d]imidazol-1-yl)propanamide] | > 1
11 | COCCCn1c([C@@H]2CCCN(C(=O)[C@@H]3CN(S(=O)(=O)c4ccc(F)cc4Cl)C[C@H]3N)C2)nc2ccccc21 [Compound 349, ((3R,4S)-4-amino-1-(2-chloro-4-fluorophenylsulfonyl)pyrrolidin-3-yl)((R)-3-(1-(3-methoxypropyl)-1H-benzo[d]imidazol-2-yl)piperidin-1-yl)methanone] | 0.1 to 1
12 | CC(=O)NCCn1c([C@@H]2CCCN(C(=O)C[C@H](N)Cc3ccc(-c4ccc(O)nc4)cc3)C2)nc2c(C)cccc21 [Compound 473, N-(2-(2-((R)-1-((R)-3-amino-4-(4-(6-hydroxypyridin-3-yl)phenyl)butanoyl)piperidin-3-yl)-4-methyl-1H-benzo[d]imidazol-1-yl)ethyl)acetamide] | 0.1 to 1
13 | COCCCn1c([C@@H]2CCCN(C(=O)[C@@H]3CN(C(=O)c4ccccc4OC)C[C@H]3N)C2)nc2ccccc21 [Compound 387, ((3R,4S)-4-amino-1-(2-methoxybenzoyl)pyrrolidin-3-yl)((R)-3-(1-(3-methoxypropyl)-1H-benzo[d]imidazol-2-yl)piperidin-1-yl)methanone] | > 1

The next lines start with the values.

Row | IC50 [µM] | SMILES
14 | 0.1 to 1 | COCCCn1c([C@@H]2CCCN(C(=O)C[C@H](N)Cc3cc(F)c(F)cc3F)C2)nc2ccccc21 [Compound 86, (R)-3-amino-1((R)-3-(1-(3-methoxypropyl)-1H-benzo[d]imidazol-2-yl)piperidin-1-yl)-4-(2,4,5-trifluorophenyl)butan-1-one]
15 | 0.1 to 1 | COCCCn1c([C@@H]2CCCN(C(=O)C[C@H](N)CNC(=O)c3ccc(-c4ccc(F)cc4)o3)C2)nc2ccccc21 [Compound 304, N-((S)-2-amino-4-((R)-3-(1-(3-methoxypropyl)-1H-benzo[d]imidazol-2-yl)piperidin-1-yl)-4-oxobutyl)-5-(4-fluorophenyl)furan-2-carboxamide]
16 | < 0.1 | COCCCn1c([C@@H]2CCCN(C(=O)C[C@H](N)Cc3ccc(-c4ccncc4OC)cc3)C2)nc2ccccc21 [Compound 144, (R)-3-amino-1-((R)-3-(1-(3-methoxypropyl)-1H-benzo[d]imidazol-2-yl)piperidin-1-yl)-4-(4-(3-methoxypyridin-4-yl)phenyl)butan-1-one]
17 | 0.1 to 1 | COCCCn1c([C@@H]2CCCN(C(=O)C[C@H](N)Cc3ccc(-c4ccc(O)nc4)cc3)C2)nc2c(C)ccnc21 [Compound 504, (R)-3-amino-4-(4-(6-hydroxypyridin-3-yl)phenyl)-1-((R)-3-(3-(3-methoxypropyl)-7-methyl-3H-imidazo[4,5-b]pyridin-2-yl)piperidin-1-yl)butan-1-one]
18 | < 0.1 | COCCCn1c([C@@H]2CCCN(C(=O)C[C@H](N)Cc3ccc(-c4ccc5c(c4)CC(=O)N5)cc3)C2)nc2c(C)cccc21 [Compound 495, 5-(4-((R)-2-amino-4-((R)-3-(1-(3-methoxypropyl)-4-methyl-1H-benzo[d]imidazol-2-yl)piperidin-l-yl)-4-oxobutyl)phenyl)indolin-2-one]
19 | < 0.1 | COCCCn1c([C@@H]2CCCN(C(=O)C[C@H](N)Cc3ccc(-c4ccccc4)cc3)C2)nc2cccc(Cl)c21 [Compound 98, (R)-3-amino-4-(biphenyl-4-yl)-1-((R)-3-(7-chloro-1-(3-methoxypropyl)-1H-benzo[d]imidazol-2-yl)piperidin-1-yl)butan-1-one]
20 | < 0.1 | COCCCn1c([C@@H]2CCCN(C(=O)C[C@H](N)Cc3ccc(-c4ccc(C(=O)NCCOC)c(F)c4)cc3)C2)nc2ccccc21 [Compound 191, 4′-((R)-2-Amino-4-((R)-3-(1-(3-methoxypropyl)-1H-benzoldlimidazol-2-yl)piperidin-1-yl)-4-oxobutyl)-3-fluoro-N-(2-methoxyethyl)biphenyl-4-carboxamide]
21 | < 0.1 | COCCCn1c([C@@H]2CCCN(C(=O)C[C@H](N)Cc3ccc(-c4cccnc4F)cc3)C2)nc2ccccc21 [Compound 151, (R)-3-amino-4-(4-(2-fluoropyridin-3-yl)phenyl)-1-((R)-3-(1-(3-methoxypropyl)-1H-benzo[d]imidazol-2-yl)piperidin-1-yl)butan-1-one]
